# Experiments:
# [1] = tested on: bacteria; assay: Antimicrobial efficacy / bacterial viability assay, summary statements without named organism; type: cell-based; conditions: equivalent concentrations of silver
# Description: Such an enhanced antimicrobial efficacy, for instance, may be attributed to a sustained release of silver, for example, either as a nanoparticle and/or its ionic form. By way of example, antimicrobial efficacy of the silica-silver nanocomposite particle was evaluated relative to that of the silver nanoparticle (AgNP) lacking the dielectric material encapsulation and aqueous silver nitrate (AgNO3) solutions, respectively, at equivalent concentrations of silver (if present). Note that, the silver nanoparticle and the silver nitrate, in this example, have been used as a positive growth control, while the silica nanoparticle (SiNP) lacking silver components, has been used as a negative growth control.
# In order to gain a better understanding of the antimicrobial efficacy of each material, we carried out a colony forming unit study over two time points, 1 and 4 hours. 96 well plates were prepared and incubated as described for M IC studies, and 10 μL samples from wells containing the concentrations of antimicrobial agents were taken at each time point. […] MH2 agar plates labeled by material and time point were then spotted with five 10 μL drops from each well at each concentration, allowed to dry in the sterile conditions of a biosafety cabinet, and then incubated 12-14 hours before colonies were counted. […]
# [2] = Color passivation study on coated tiles (thermal and UV treatments); type: physicochemical
# Description: White tiles were purchased from Home Depot, and scrubbed with acetone and Kim wipes to remove any oils which would inhibit materials from adhering well. After scrubbing and allowing the tiles to dry, about 50 μL samples of each material were spread over an area approximately 3cm by 3cm, and allowed to dry under ambient conditions. A picture was taken, and then tiles were exposed to long and shortwave UV radiation for 5 minutes, and briefly heated using a butane torch, and photographed again to observe the change in color of each material.
smiles,measurement,setting,value
"O=[N+]([O-])[O-].[Ag+] [AgNO3, silver nitrate]","antimicrobial efficacy, relative ranking",[1],most effective antimicrobial form of silver
same,color of coated tile after thermal and UV treatments,[2]; UV radiation for 5 minutes and brief heating with butane torch,dark brown/black color
same,color of coated tile before thermal and UV treatments,"[2]; white tiles, dried coating",do not show formation of color
